Data taken from patent US11472792B2, “Herbicidal mixtures” (SYNGENTA CROP PROTECTION AG, priority 2019, dated 2022).

Experiments:
Assay type in all cases: in vivo
Conditions in all cases: evaluated visually after 13 days, 100=total damage, 0=no damage
[1] = tested on: Amaranthus retroflexus (AMARE); test: Herbicidal efficacy, post-emergence application (glasshouse)
Description: (§1) Seeds of a variety of test species [Ipomoea hederacea (IPOHE); Zea mays (ZEAMX); Echinochloa crus-galli (ECHCG); Setaria faberi (SETFA); Abutilon theophrasti (ABUTH); Amaranthus retroflexus (AMARE)] were sown in standard sterilised soil in pots. After cultivation for one day (pre-emergence) or after 8 days cultivation (post-emergence) under controlled conditions in a glasshouse (at 24/16° C., day/night; 14 hours light; 65% humidity), the plants were sprayed with an aqueous spray solution derived from the formulation of the technical active ingredient in acetone/water (50:50) solution containing 0.5% Tween 20 (polyoxyethelyene sorbitan monolaurate, CAS RN 9005-64-5), subsequently diluted in water, and sprayed to give the stated application rate.
(§2) The test plants were then grown under controlled conditions in a glasshouse (at 24/16° C., day/night; 14 hours light; 65% humidity) and watered twice daily.
(§3) After 13 days for pre and post-emergence, the test was evaluated visually for percentage phytotoxicity to the plant (where 100=total damage to plant; 0=no damage to plant).

[2] = tested on: Echinochloa crus-galli (ECHCG); test: as above
Description: as §1, §2, §3

[3] = tested on: Abutilon theophrasti (ABUTH); test: as above
Description: as §1, §2, §3

[4] = tested on: Setaria faberi (SETFA); test: as above
Description: as §1, §2, §3

[5] = tested on: Zea mays (ZEAMX); test: as above
Description: as §1, §2, §3

[6] = tested on: Ipomoea hederacea (IPOHE); test: as above
Description: as §1, §2, §3

[7] = tested on: Amaranthus retroflexus (AMARE); test: Herbicidal efficacy, pre-emergence application (glasshouse)
Description: as §1, §2, §3

[8] = tested on: Echinochloa crus-galli (ECHCG); test: as above
Description: as §1, §2, §3

[9] = tested on: Abutilon theophrasti (ABUTH); test: as above
Description: as §1, §2, §3

[10] = tested on: Setaria faberi (SETFA); test: as above
Description: as §1, §2, §3

[11] = tested on: Zea mays (ZEAMX); test: as above
Description: as §1, §2, §3

[12] = tested on: Ipomoea hederacea (IPOHE); test: as above
Description: as §1, §2, §3

[13] = Amaranthus retroflexus, 312 h, read-out: percentage phytotoxicity to the plant, AMARE
[14] = Echinochloa crus-galli, 312 h, read-out: percentage phytotoxicity to the plant, ECHCG
[15] = Abutilon theophrasti, 312 h, read-out: percentage phytotoxicity to the plant, ABUTH
[16] = Setaria faberi, 312 h, read-out: percentage phytotoxicity to the plant, SETFA
[17] = Zea mays, 312 h, read-out: percentage phytotoxicity to the plant, ZEAMX
[18] = Ipomoea hederacea, 312 h, read-out: percentage phytotoxicity to the plant, IPOHE

## CN1C[C@H](c2cnn(C)c2C(F)(F)F)[C@@H](C(=O)Nc2cccc(F)c2F)C1=O [Compound 2.15, (3S,4S)-N-(2,3-difluorophenyl)-1-methyl-4-[1-methyl-5-(trifluoromethyl)pyrazol-4-yl]-2-oxo-pyrrolidine-3-carboxamide]
[1]; [13]
  pest or weed control at 250 g/ha: 0%
[2]; [14]
  pest or weed control at 250 g/ha: 80%
[3]; [15]
  pest or weed control at 250 g/ha: 0%
[4]; [16]
  pest or weed control at 250 g/ha: 80%
[5]; [17]
  plant injury at 250 g/ha: 30%
[6]; [18]
  pest or weed control at 250 g/ha: 40%
[7]; [13]
  pest or weed control at 250 g/ha: 0%
[8]; [14]
  pest or weed control at 250 g/ha: 100%
[9]; [15]
  pest or weed control at 250 g/ha: 40%
[10]; [16]
  pest or weed control at 250 g/ha: 100%
[11]; [17]
  plant injury at 250 g/ha: 40%
[12]; [18]
  pest or weed control at 250 g/ha: 20%

## (3S,4R)-N-[2-(1,1-difluoroethyl)-3-fluoro-phenyl]-1-methyl-4-[1-methyl-5-(trifluoromethyl)pyrazol-3-yl]-2-oxo-pyrrolidine-3-carboxamide [Compound 2.12]
[1]; 250 g/ha
  percentage phytotoxicity to the plant, AMARE: 0%
[2]; 250 g/ha
  percentage phytotoxicity to the plant, ECHCG: 90%
[3]; 250 g/ha
  percentage phytotoxicity to the plant, ABUTH: 0%
[4]; 250 g/ha
  percentage phytotoxicity to the plant, SETFA: 90%
[5]; 250 g/ha
  percentage phytotoxicity to the plant, ZEAMX: 80%
[6]; 250 g/ha
  percentage phytotoxicity to the plant, IPOHE: 50%
[7]; 250 g/ha
  percentage phytotoxicity to the plant, AMARE: 0%
[8]; 250 g/ha
  percentage phytotoxicity to the plant, ECHCG: 90%
[9]; 250 g/ha
  percentage phytotoxicity to the plant, ABUTH: 0%
[10]; 250 g/ha
  percentage phytotoxicity to the plant, SETFA: 90%
[11]; 250 g/ha
  percentage phytotoxicity to the plant, ZEAMX: 90%
[12]; 250 g/ha
  percentage phytotoxicity to the plant, IPOHE: 70%
